This note sets out measurements from article PMC7824341, “Phenylhydrazone and Quinazoline Derivatives from the Cold-Seep-Derived Fungus Penicillium oxalicum” (Marine Drugs, 2020).

For one data set, the system named is Chattonella marina. Kind of data set: Inhibition of marine microalgae. Type of data set: cell-based. The conditions noted are these: microalga Chattonella marina; for IC50: Chattonella marina, read-out: IC50 C. marina. The method, then:
(§1) Mariculture is often threatened by harmful algal blooms and pathogenic bacteria. Compounds 1–5 and dankasterone A were assayed for inhibition of the three microalgae Chattonella marina, Heterosigma akashiwo, and Prorocentrum donghaiense, and the results are shown in Table 4. […] In addition, their inhibition against four marine-derived bacterial pathogens including Vibrio anguillarum, Vibrio harveyi, Vibrio parahaemolyticus, and Vibrio splendidus was detected using the disk diffusion method. […] The MIC values of active molecules were also measured, but only those of 4 and 5 (8 μg/mL) appeared lower than 10 μg/mL. […] In view of the above inhibitory effects of 1, 4, 5, and dankasterone A on the microalgal and bacterial species, their toxicities to the marine zooplankton Artemia salina were also tested.

A further data set has as its system Heterosigma akashiwo. Kind of data set: Inhibition of marine microalgae. Type of data set: cell-based. The conditions noted are these: microalga Heterosigma akashiwo; for IC50: Heterosigma akashiwo, read-out: IC50 H. akashiwo. Here is the method:
as §1

Another data set deals with Prorocentrum donghaiense. The data set is described as follows: Inhibition of marine microalgae. Type of data set: cell-based. The following applies: microalga Prorocentrum donghaiense; for IC50: Prorocentrum donghaiense, read-out: IC50 P. donghaiense. Here is the method:
as §1

A further data set concerns Vibrio anguillarum. Kind of data set: Antibacterial disk diffusion method. Type of data set: cell-based. The conditions noted are these: at 20 μg/disk; for zone of inhibition at 20 µg/disc: Vibrio anguillarum, read-out: Inhibitory Zone Diameter V. anguillarum. Here is the method: as §1
For a further data set, the system named is Vibrio splendidus. The data set is described as follows: Antibacterial disk diffusion method. Format: cell-based. The conditions noted are these: at 20 μg/disk; for zone of inhibition at 20 µg/disc: Vibrio splendidus, read-out: Inhibitory Zone Diameter V. splendidus. Here is the method:
as §1

A further data set deals with Artemia salina. Kind of data set: in vivo. The following applies: marine zooplankton Artemia salina. Here is the method:
as §1

The test system of data set [1] is V. harveyi and V. parahaemolyticus. Kind of data set: MIC of active molecules against marine-derived bacterial pathogens. Type of data set: cell-based, Vibrio harveyi, Vibrio parahaemolyticus. The following applies: bacterial strain not given, active molecules were those inhibiting V. harveyi and V. parahaemolyticus. The method, then:
as §1

The subject of another data set is Vibrio harveyi. The data set is described as follows: Antibacterial disk diffusion method. Type of data set: cell-based. The following applies: at 20 μg/disk, read-out: Inhibitory Zone Diameter V. harveyi. Here is the method: as §1
The next data set relates to Vibrio parahaemolyticus. The data set is described as follows: Antibacterial disk diffusion method. The conditions noted are these: at 20 μg/disk, read-out: Inhibitory Zone Diameter V. parahaemolyticus. Type of data set: cell-based. Here is the method: as §1
For orientation: Agar diffusion results depend on both activity and mobility in agar.

The next data set is described as follows: in vivo. The conditions noted are these: in vivo; marine zooplankton Artemia salina. Here is the method:
as §1

≈ marks a conversion by molar mass, not a printed value. Where two headings read alike, the source gives them in different places.

A word on the MIC: it is the lowest concentration found to suppress growth. Turning to `COC(=O)C(Cc1ccc(O)cc1)n1cnc2ccccc2c1=O` (stereo not shown) [Compound 5, Penoxazolone B], in the data set on Chattonella marina, the “IC50 C. marina” value was found to be 9.1 µg/mL (≈ 28.1 µM). In addition, the “IC50 H. akashiwo” value with Heterosigma akashiwo was 9.0 µg/mL (≈ 27.7 µM). Besides, the “IC50 P. donghaiense” value with Prorocentrum donghaiense was determined as 1.2 µg/mL (≈ 3.7 µM). In the data set on Vibrio anguillarum, the “Inhibitory Zone Diameter V. anguillarum” value is listed as 0 mm. Further, in the data set on Vibrio splendidus, the “Inhibitory Zone Diameter V. splendidus” value is 7.0 mm. The “LC50 A. salina” value in the data set with Artemia salina was above 100 µg/mL. In addition, the minimal inhibitory concentration (MIC) in data set [1] amounted to 8 µg/mL.
For `O=C(N[C@H](CO)[C@H](O)c1ccc([N+](=O)[O-])cc1)C(Cl)Cl` [chloramphenicol, reference compound], the zone of inhibition at 20 µg/disc in the data set with Vibrio anguillarum was 18 mm; in the data set on Vibrio harveyi, 29 mm; in the data set on Vibrio parahaemolyticus, 28 mm; in the data set on Vibrio splendidus, 23 mm.
Usually IC50 stands for the concentration that inhibits the measured activity by half. The term LC50 denotes the concentration that kills 50% of the test population. For `CC(C)[C@@H](C)/C=C/[C@@H](C)[C@H]1CCC(=O)[C@]23CC(=O)C4=CC(=O)CC[C@]4(C)[C@H]2CC[C@]13C` [dankasterone A], the half-inhibitory concentration (IC50) came to 1.9 µg/mL (≈ 4.47 µM) in the data set with Chattonella marina, 4.6 µg/mL (≈ 10.8 µM) in the data set with Heterosigma akashiwo and 1 µg/mL (≈ 2.36 µM) in the data set on Prorocentrum donghaiense. Moreover, the zone of inhibition at 20 µg/disc in the data set on Vibrio anguillarum is 7 mm; with Vibrio harveyi, above 10 mm; with Vibrio parahaemolyticus, above 10 mm; with Vibrio splendidus, 0 mm. For the same compound, the LC50 in “in vivo” stood at 43 µg/mL (≈ 101 µM).
Turning to `COC(=O)C(Cc1ccc(O)cc1)n1cnc2ccccc2c1=O` (stereo not shown) [Compound 4, Penoxazolone A], the “IC50 C. marina” value with Chattonella marina came to 2.8 µg/mL (≈ 8.63 µM). In addition, in the data set on Heterosigma akashiwo, the IC50 is 8.1 µg/mL (≈ 25 µM). Moreover, the “IC50 P. donghaiense” value with Prorocentrum donghaiense is 0.57 µg/mL (≈ 1.76 µM). Also, the “Inhibitory Zone Diameter V. anguillarum” value in the data set on Vibrio anguillarum amounted to 7.0 mm. Moreover, the zone of inhibition at 20 µg/disc in the data set on Vibrio harveyi is above 10 mm; in the data set with Vibrio parahaemolyticus it was above 10 mm; with Vibrio splendidus, 7.3 mm. The compound further yielded an LC50 in “in vivo” above 100 µg/mL. Besides, the minimum inhibitory concentration (MIC) in [1] (read-out: MIC) is 8 µg/mL.
Turning to `CC(C)C(C)C=CC(C)C1CCC(=O)C23CC(=O)C4=CC(=NNc5ccccc5C(=O)O)CCC4(C)C2CCC13C` (stereo not shown) [Compound 1, Penoxahydrazone A], the IC50 with Chattonella marina is 1.2 µg/mL (≈ 2.15 µM); in the data set with Heterosigma akashiwo, 3.7 µg/mL (≈ 6.62 µM); in the data set with Prorocentrum donghaiense, 0.68 µg/mL (≈ 1.22 µM). Further, the zone of inhibition at 20 µg/disc in the data set on Vibrio anguillarum is 0 mm; with Vibrio harveyi, above 10 mm; in the data set on Vibrio parahaemolyticus it was above 10 mm; with Vibrio splendidus, 0 mm. In the data set “in vivo”, this compound showed an LC50 of 58 µg/mL (≈ 104 µM).
In the case of `[K+].[K+].[O]=[Cr](=[O])([O-])[O][Cr](=[O])(=[O])[O-]` [Compound K2Cr2O7, K2Cr2O7, reference compound], the “IC50 C. marina” value in the data set with Chattonella marina came out at 0.60 µg/mL. Also, in the data set with Heterosigma akashiwo, the “IC50 H. akashiwo” value came out at 2.4 µg/mL. Besides, the “IC50 P. donghaiense” value in the data set on Prorocentrum donghaiense was found to be 1.2 µg/mL. Besides, in the data set on Artemia salina, the “LC50 A. salina” value was found to be 18 µg/mL.
